Assay results published in patent US11229664B2, “Treatment of myelosuppression” (priority 2012, dated 2022).
Several values for one entry are separate records, joined by “and”; a condition that tells them apart may be missing. Equal entries are not always repeated.

What was measured:
platelets = test: Clinical trial, metastatic pancreatic cancer: platelet count / thrombocytopenia grade; assay type: in vivo, human; design: Platelet count at start of cycle, Cycle 1: unit not given here; Platelet count at start of cycle, Cycle 4 / Platelet count: unit: ×10^3/μl blood
Description: Male and non-pregnant, non-lactating, female patients, aged 18 to 75, with histologically confirmed metastatic adenocarcinoma of the pancreas were enrolled in the trial. […] Treatment consisted of a series of 28-day cycles, wherein the last day of one cycle (e.g., day 28, cycle 1) was immediately followed by the first day of the next cycle (e.g., day 1, cycle 2). […] Nab-paclitaxel and gemcitabine therapy was given as described in the prescribing information for Abraxane® and Gemzar®. See also, Von Hoff et al., 2011, J. […] As a substantially non-anticoagulant heparinoid, ODSH can be administered at a dose that is greater than the fully anticoagulant dose of unfractionated heparin, without concern for anticoagulant effect, as shown in the Results below. An initial run-in period was conducted in which ten patients were treated with the gemcitabine, nab-paclitaxel, and ODSH regimen described above. After all ten patients had completed at least one 28-day cycle, the data were reviewed and an open-label randomized study initiated, with two arms (ODSH arm and Control arm). In the ODSH arm, the dosing regimen was the same as in the run-in period (gemcitabine, nab-paclitaxel, and ODSH). In the Control arm, patients were given the same gemcitabine and nab-paclitaxel regimen as in the run-in period, but without ODSH. […] Platelet counts, total white blood cell counts, and absolute neutrophil counts were performed. Grading of thrombocytopenia and/or neutropenia was performed according to the following standards: [table]

[1] = BxPC-3 xenograft study
Description: All experiments were conducted on female athymic nude mice (Hsd:Athymic Nude-Foxn1nu) supplied by Harlan (Indianapolis, Ind.). Mice were received at four weeks of age, 12-15 grams in weight, and were acclimated for seven days prior to handling. The mice were housed in microisolator cages (Lab Products, Seaford, Del.) and maintained under specific pathogen-free conditions. All procedures were carried out under appropriate institutional guidelines for animal care.
Seven days following inoculation, tumors were measured using calipers and tumor weight was calculated using the animal study management software. […] Body weights were recorded when the mice were randomized and were taken twice weekly thereafter in conjunction with tumor measurements, on each of Days 1, 4, 8, 11, 15, 18, 22, 26, 30, 33, and 36.
The study was terminated when the vehicle control reached an endpoint of 1500 mg, on Day 36.

[2] = ODSH 4 mg/kg bolus + 0.375 mg/kg/hr 48 h, adjunct to gemcitabine/nab-paclitaxel
[3] = ODSH adjunct to gemcitabine/nab-paclitaxel
[4] = ODSH adjunctive to gemcitabine and nab-paclitaxel, blood drawn before treatment that day, individual patients
[5] = all samples (FIG. 10A), ODSH adjunct to gemcitabine/nab-paclitaxel
[6] = day 15, first cycle, ODSH adjunct to gemcitabine/nab-paclitaxel

Substance: substantially 2-O, 3-O desulfated heparin [ODSH]
- Patients with platelet count at beginning of fourth cycle greater than at beginning of first cycle (platelets; [2]): 9 out of 10
- Patients with platelet count at beginning of third cycle greater than at beginning of first cycle (platelets; [2]): Eight out of 9
- Patients with platelet count at beginning of second cycle greater than at beginning of first cycle (platelets; ODSH 4 mg/kg bolus + 0.375 mg/kg/hr 48 h, days 1, 8, 15 of 28-day cycles, adjunct to gemcitabine/nab-paclitaxel): Ten out of 10 and 10/10
- Patients exhibiting thrombocytopenia at the start of the second cycle (platelets; [3]): None
- Patients exhibiting thrombocytopenia at the start of the third cycle (platelets; [3]): one of 8
- Patients with platelet counts higher at the beginning of cycle 3 than at the beginning of cycle 2 (platelets; [3]): 6/9
- Platelet Count, Cycle 1 Day 1 (platelets; ODSH adjunctive to gemcitabine and nab-paclitaxel, blood drawn before treatment administration (before any chemotherapy), individual patients): 313 ×10^3/μl blood and 264 ×10^3/μl blood and 191 ×10^3/μl blood and 274 ×10^3/μl blood and 276 ×10^3/μl blood and 120 ×10^3/μl blood and 271 ×10^3/μl blood and 342 ×10^3/μl blood and 429 ×10^3/μl blood and 180 ×10^3/μl blood
- Platelet Count, Cycle 1 Day 8 (platelets; [4]): 205 ×10^3/μl blood and 167 ×10^3/μl blood and 108 ×10^3/μl blood and 150 ×10^3/μl blood and 239 ×10^3/μl blood and 86 ×10^3/μl blood (2×) and 230 ×10^3/μl blood and 206 ×10^3/μl blood and 214 ×10^3/μl blood
- Platelet Count, Cycle 1 Day 15 (platelets; [4]): 135 ×10^3/μl blood and 178 ×10^3/μl blood and 108 ×10^3/μl blood and 75 ×10^3/μl blood and 220 ×10^3/μl blood and 76 ×10^3/μl blood and 181 ×10^3/μl blood and 134 ×10^3/μl blood and 260 ×10^3/μl blood and 63 ×10^3/μl blood
- Platelet Count, Cycle 2 Day 1 (platelets; [4]): 419 ×10^3/μl blood and 322 ×10^3/μl blood and 312 ×10^3/μl blood and 574 ×10^3/μl blood and 445 ×10^3/μl blood and 175 ×10^3/μl blood and 417 ×10^3/μl blood and 614 ×10^3/μl blood and 532 ×10^3/μl blood and 274 ×10^3/μl blood
- Platelet Count, Cycle 2 Day 8 (platelets; [4]): 434 ×10^3/μl blood and 336 ×10^3/μl blood and 241 ×10^3/μl blood and 424 ×10^3/μl blood and 05 ×10^3/μl blood and 83 ×10^3/μl blood and 402 ×10^3/μl blood and 375 ×10^3/μl blood and 257 ×10^3/μl blood and 95 ×10^3/μl blood
- Platelet Count, Cycle 2 Day 15 (platelets; [4]): 209 ×10^3/μl blood and 207 ×10^3/μl blood and 132 ×10^3/μl blood and 167 ×10^3/μl blood and 186 ×10^3/μl blood (2×) and 70 ×10^3/μl blood and 178 ×10^3/μl blood and 170 ×10^3/μl blood and 54 ×10^3/μl blood
- Platelet Count, Cycle 3 Day 1 (platelets; [4]): 510 ×10^3/μl blood and 327 ×10^3/μl blood and 362 ×10^3/μl blood and 655 ×10^3/μl blood and 418 ×10^3/μl blood and 123 ×10^3/μl blood and 487 ×10^3/μl blood and 628 ×10^3/μl blood and 387 ×10^3/μl blood and −361 ×10^3/μl blood
- Platelet Count, Cycle 3 Day 8 (platelets; [4]): 435 ×10^3/μl blood and 325 ×10^3/μl blood and 362 ×10^3/μl blood (2×) and 388 ×10^3/μl blood and 223 ×10^3/μl blood and 119 ×10^3/μl blood and 355 ×10^3/μl blood and 371 ×10^3/μl blood and 179 ×10^3/μl blood
- Platelet Count, Cycle 3 Day 15 (platelets; [4]): 207 ×10^3/μl blood and 170 ×10^3/μl blood and 163 ×10^3/μl blood and 188 ×10^3/μl blood and 171 ×10^3/μl blood (2×) and 63 ×10^3/μl blood and 172 ×10^3/μl blood and 189 ×10^3/μl blood and 71 ×10^3/μl blood
- Platelet Count, Cycle 4 Day 1 (platelets; [4]): 586 ×10^3/μl blood and 402 ×10^3/μl blood and 292 ×10^3/μl blood and 478 ×10^3/μl blood and 667 ×10^3/μl blood and 184 ×10^3/μl blood and 406 ×10^3/μl blood and 626 ×10^3/μl blood and 382 ×10^3/μl blood and 387 ×10^3/μl blood
- Platelet Count, Cycle 4 Day 8 (platelets; [4]): 464 ×10^3/μl blood and 339 ×10^3/μl blood and 355 ×10^3/μl blood and 468 ×10^3/μl blood and 193 ×10^3/μl blood and 188 ×10^3/μl blood and 507 ×10^3/μl blood and 448 ×10^3/μl blood and 185 ×10^3/μl blood
- Platelet Count, Cycle 4 Day 15 (platelets; [4]): 203 ×10^3/μl blood and 170 ×10^3/μl blood and 140 ×10^3/μl blood and 163 ×10^3/μl blood and 149 ×10^3/μl blood and 129 ×10^3/μl blood and 339 ×10^3/μl blood and 169 ×10^3/μl blood and 202 ×10^3/μl blood and 78 ×10^3/μl blood
- Platelet Count, Cycle 5 Day 1 (platelets; [4]): 499 ×10^3/μl blood and 351 ×10^3/μl blood and 266 ×10^3/μl blood and 389 ×10^3/μl blood and 275 ×10^3/μl blood and 106 ×10^3/μl blood and 512 ×10^3/μl blood and 607 ×10^3/μl blood and 427 ×10^3/μl blood and −288 ×10^3/μl blood
- Platelet Count, Cycle 5 Day 8 (platelets; [4]): 231 ×10^3/μl blood and 288 ×10^3/μl blood and 241 ×10^3/μl blood and 325 ×10^3/μl blood and 192 ×10^3/μl blood and 94 ×10^3/μl blood and 378 ×10^3/μl blood and 377 ×10^3/μl blood and 403 ×10^3/μl blood and 188 ×10^3/μl blood
- Platelet Count, Cycle 5 Day 15 (platelets; [4]): 132 ×10^3/μl blood and 169 ×10^3/μl blood and 153 ×10^3/μl blood and 109 ×10^3/μl blood and 58 ×10^3/μl blood and 193 ×10^3/μl blood and 194 ×10^3/μl blood and 72 ×10^3/μl blood
- Platelet Count, Cycle 6 Day 1 (platelets; [4]): 288 ×10^3/μl blood and 370 ×10^3/μl blood and 294 ×10^3/μl blood and 489 ×10^3/μl blood and 114 ×10^3/μl blood and 371 ×10^3/μl blood and 503 ×10^3/μl blood and 275 ×10^3/μl blood
- Platelet Count, Cycle 6 Day 8 (platelets; [4]): 384 ×10^3/μl blood and 321 ×10^3/μl blood and 207 ×10^3/μl blood and 336 ×10^3/μl blood and 85 ×10^3/μl blood and 313 ×10^3/μl blood and 493 ×10^3/μl blood and 148 ×10^3/μl blood
- Platelet Count, Cycle 6 Day 15 (platelets; [4]): 169 ×10^3/μl blood and 162 ×10^3/μl blood and 128 ×10^3/μl blood and 102 ×10^3/μl blood and 54 ×10^3/μl blood and 338 ×10^3/μl blood and 164 ×10^3/μl blood and 72 ×10^3/μl blood
- Mean and median platelet counts at day 15 of treatment cycles 2 and 3 (platelets; [5]): remained in the normal range
- Mean and median platelet counts on the first day of treatment cycles 2 and 3 (platelets; [5]): above 150,000
- Platelet count at start of cycle, Cycle 1 (platelets; day 1 of cycle 1, before any chemotherapy, ODSH adjunctive to gemcitabine and nab-paclitaxel, individual patients): 264 and 191 and 274 and 276 and 120 and 271 and 342 and 429 and 180 and 313
- Platelet count at start of cycle, Cycle 2 (platelets; day 1 of cycle 2, ODSH adjunctive to gemcitabine and nab-paclitaxel, individual patients): 322 and 312 and 574 and 445 and 175 and 417 and 614 and 537 and 274 and 419
- Platelet count at start of cycle, Cycle 3 (platelets; day 1 of cycle 3, ODSH adjunctive to gemcitabine and nab-paclitaxel, individual patients): 327 and 362 and 655 and 418 and 123 and 628 and 387 and 361 and 510
- Platelet count at start of cycle, Cycle 4 (platelets; day 1 of cycle 4, ODSH adjunctive to gemcitabine and nab-paclitaxel, individual patients): 402 and 292 and 478 and 667 and 184 and 406 and 626 and 382 and 387 and 586
- Platelet count at start of cycle, Cycle 5 (platelets; day 1 of cycle 5, ODSH adjunctive to gemcitabine and nab-paclitaxel, individual patients): 351 and 389 and 275 and 512 and 427 and 288 and 499
- Platelet count at start of cycle, Cycle 6 (platelets; day 1 of cycle 6, ODSH adjunctive to gemcitabine and nab-paclitaxel, individual patients): 489 and 371 and 503 and 275 and 288
- Platelet count at start of cycle, Cycle 7 (platelets; day 1 of cycle 7, ODSH adjunctive to gemcitabine and nab-paclitaxel, individual patients): 454
- Patients with no more than mild thrombocytopenia after two doses of treatment (platelets; [6]): 90%
- Patients with no thrombocytopenia after two doses of treatment (platelets; [6]): 40%
- Patients with no thrombocytopenia after five doses of treatment (platelets; day 15 of cycle 2, ODSH adjunct to gemcitabine/nab-paclitaxel): 7 out of 10
- Patients thrombocytopenic at the beginning of cycles 2 and 3 (platelets; mild (Grade 1), after three or six doses of gemcitabine and nab-paclitaxel with ODSH): one
- Platelet count (platelets; open-label randomized trial, per arm, Cycle 1 Day 1): 248
- Platelet count (platelets; open-label randomized trial, per arm, Cycle 1 Day 15): 143
- Platelet count (platelets; open-label randomized trial, per arm, Cycle 2 Day 1): 336
- Platelet count (platelets; open-label randomized trial, per arm, Cycle 2 Day 15): 135
- Platelet count (platelets; open-label randomized trial, per arm, Cycle 3 Day 1): 393
- Platelet count (platelets; open-label randomized trial, per arm, Cycle 3 Day 15): 171
- Platelet count (platelets; open-label randomized trial, per arm, Cycle 4 Day 1): 404
- Platelet count (platelets; open-label randomized trial, per arm, Cycle 4 Day 15): 156
- Platelet count (platelets; open-label randomized trial, per arm, Cycle 5 Day 1): 389
- Platelet count (platelets; open-label randomized trial, per arm, Cycle 5 Day 15): 121
- Platelet count (platelets; open-label randomized trial, per arm, Cycle 6 Day 1): 371
- Platelet count (platelets; open-label randomized trial, per arm, Cycle 6 Day 15): 132
- Platelet Count, Screen (platelets; prior to entry into the clinical trial protocol, individual patients): 321 ×10^3/μl blood and 187 ×10^3/μl blood and 269 ×10^3/μl blood and 267 ×10^3/μl blood and 166 ×10^3/μl blood and 271 ×10^3/μl blood and 204 ×10^3/μl blood and 505 ×10^3/μl blood
- Platelet count (platelets; randomized stage, individual patients, Cycle 1 Day 15): 231 and 216 and 121 and 103 and 199 and 172 and 162 and 232
- Platelet count (platelets; randomized stage, individual patients, Cycle 2 Day 15): 110 and 156 and 95 and 74 and 92 and 165
- Platelet count (platelets; randomized stage, individual patients, Cycle 3 Day 15): 124 and 74 and 76 and 96
- Platelet count (platelets; randomized stage, individual patients, Cycle 4 Day 15): 31 and 138
- Platelet counts, ODSH arm vs Control arm (platelets; randomized stage, gemcitabine + nab-paclitaxel with or without ODSH): statistically significant difference
- Median and mean platelet counts at day 15 of the first cycle, ODSH arm vs patients not receiving ODSH (platelets; randomized trial, 5 patients in each arm, p=0.013 unpaired t-test): significantly higher
- Platelet recovery by day 1 of a subsequent cycle, ODSH arm vs control arm (platelets; randomized trial, p=0.0004 after 6 cycles, unpaired t-test): enhanced
- Day by which the mice recovered their weight [1]: ≤ 22 days
